One assay has as its target SARS-CoV-S1S2-hACE2 PPI (Severe acute respiratory syndrome coronavirus, UniProt P59594). The assay is described as follows: biochemical. The format is binding, SARS-CoV / human.
Assay [1] has as its system SARS-CoV-2 pseudovirus (BacMam) entry into ACE2 expressing host cells (HEK293T). The assay is described as follows: microbe, parasite or virus in culture. The conditions noted are these: Severe acute respiratory syndrome-related coronavirus, HEK-293T, read-out: IC50, inhibition of pseudovirus entry (BacMam). The format is cell-based, SARS-CoV-2 pseudovirus / human cells.

Another assay deals with SARS-CoV-2-RBD-hACE2 PPI (Severe acute respiratory syndrome coronavirus 2, UniProt P0DTC2). The assay is described as follows: biochemical. The assay is classed as binding, SARS-CoV-2 / human.
[2] abbreviates: read-out: IC50, SARS-CoV S-hACE2 assay.
[3] abbreviates: read-out: IC50, SARS-CoV-2 S-ACE2 assay.

Like-named read-outs stand apart in the source and are kept apart here.

For orientation: IC50 means the concentration needed to halve the response being measured.

Consider `O=C(Nc1ccc(-c2ccc(C(=O)Nc3cccc4cc(S(=O)(=O)O)ccc34)cc2)cc1)c1ccc([N+](=O)[O-])cc1` [Compound A2, 5-(4′-(4-Nitrobenzamido)biphenyl-4-ylcarboxamido)naphthalene-2-sulfonic acid], for which the IC50 at SARS-CoV-S1S2-hACE2 PPI is 3.4 µM; in assay [1], 5.6 µM. For `O=C(Nc1ccc2cc(S(=O)(=O)O)cc(O)c2c1)c1ccc(-c2ccc(C(=O)Nc3ccc4cc(S(=O)(=O)O)cc(O)c4c3)cc2)cc1` [Compound A5], the IC50 against SARS-CoV-2-RBD-hACE2 PPI (IC50, SARS-CoV-2 S-ACE2 assay) was found to be 0.16 µM; at SARS-CoV-S1S2-hACE2 PPI, 0.24 µM. For `Nc1c(/N=N/c2ccc(-c3ccc(/N=N/c4cc(S(=O)(=O)O)c5ccccc5c4N)cc3)cc2)cc(S(=O)(=O)O)c2ccccc12` [Congo red], the results for the IC50 (on SARS-CoV-S1S2-hACE2 PPI (setting [2]); in assay [1]) were 3.9 µM and 20 µM, respectively. Turning to `Cc1cc(-c2ccc(/N=N/c3ccc4c(S(=O)(=O)O)cc(S(=O)(=O)O)c(N)c4c3O)c(C)c2)ccc1/N=N/c1ccc2c(S(=O)(=O)O)cc(S(=O)(=O)O)c(N)c2c1O` [Evans blue], the IC50 on SARS-CoV-S1S2-hACE2 PPI (setting [2]) was determined as 1.3 µM.

For the compound `CCOc1ccc(N=Nc2ccc(-c3ccc(N=Nc4c(O)ccc5cc(S(=O)(=O)O)cc(S(=O)(=O)O)c45)c(C)c3)cc2C)cc1` [calcomine scarlet 3B], the results for the IC50 on SARS-CoV-2-RBD-hACE2 PPI (setting [3]) and on SARS-CoV-S1S2-hACE2 PPI (setting [2]) were 4.25 µM and 9.9 µM, respectively. Consider `Nc1ccc(N=Nc2ccc(-c3ccc(N=Nc4c(S(=O)(=O)O)cc5cc(S(=O)(=O)O)c(N=Nc6ccccc6)c(O)c5c4N)cc3)cc2)c(N)c1` [chlorazol black], for which the IC50 at SARS-CoV-2-RBD-hACE2 PPI (setting [3]) is 2.57 µM. As to `Nc1ccc2cc(S(=O)(=O)O)cc(O)c2c1N=Nc1ccc(-c2ccc(N=Nc3c(N)ccc4cc(S(=O)(=O)O)cc(O)c34)cc2)cc1` [direct violet 1], the IC50 on SARS-CoV-S1S2-hACE2 PPI (setting [2]) is 2.6 µM.

The values are drawn from patent US20230381159A1 (priority 2020, published 2023).
